Laboratory results taken from patent US6911443B2 (Bayer Aktiengesellschaft, priority 2000, dated 2005).

Target: T1, human Syk (GST-Syk) (Homo sapiens, UniProt P43405)
T1 construct: A cDNA fragment encoding human Syk openreading frame was cloned; made in house; host or cells: Sf21 insect cells (baculovirus, transfer vector pAcG2T)
Test: Syk tyrosine kinase inhibitory assay
Type: biochemical
Conditions: Activity grade (IC50 class), in vitro; compounds as yielded by solid phase synthesis, purity about 40 to 90%
From the text: [Syk Tyrosine Kinase Inhibitory Assay]
(1) Preparation of Syk Protein
A cDNA fragment encoding human Syk openreading frame was cloned from total RNA of human Burkitt's lymphoma B cell lines, Raji (American Type Culture Collection), with the use of RT-PCR method. The cDNA fragment was inserted into pAcG2T (Pharmingen, San Diego, Calif.) to construct a baculovirus transfer vector. Then the vector, together with the linearized baculovirus (BaculoGold™, Pharmingen), was used to transfect Sf21 cells (Invitrogen, San Diego, Calif.).
Generated recombinant baculovirus was cloned and amplified in Sf21 cells. Sf21 cells were infected with this amplified high titer virus to produce a chimeric protein of Syk kinase fused by glutathione-S-transferase (GST).
The resulting GST-Syk was purified with the use of glutathione column (Amersham Pharmacia Biotech AB, Uppsala, Sweden) according to the manufacturer's instruction.
(2) Synthesize of a Peptide
Next, a peptide fragment of 30 residues including two tyrosine residues, […], was synthesized by a peptide synthesizer. The N-terminal of the fragment was then biotinylated to obtain biotinylated activation loop peptide (AL).
(3) The Measurement of Syk Tyrosine Kinase Activity
All reagents were diluted with the Syk kinase assay buffer (50 mM Tris-HCl (pH 8.0), 10 mM MgCl2, 0.1 mM Na3VO4, 0.1% BSA, 1 mM DTT). First, a mixture (35 μl) including […] of GST-Syk and 0.5 μg of AL was put in each well in 96-well plates. Then 5 μl of a test compound in the presence of 2.5% dimethylsulfoxide (DMSO) was added to each well. To this mixture was added […] (10 μl) to initiate the kinase reaction. The final reaction mixture (50 μl) consists of 0.65 nM GST-Syk, 3 μM AL, 30 μM ATP, a test compound, 0.25% DMSO, and a Syk kinase assay buffer.
The mixture was incubated for 1 hr at room temperature, and the reaction was terminated by the addition of 120 μl of termination buffer (50 mM Tris-HCl (pH 8.0), 10 mMEDTA, 500 mM NaCl, 0.1% BSA). The mixture was transferred to streptavidin-coated plates and incubated for 30 min at room temperature to combine biotin-AL to the plates. After washing the plates with Tris-buffered saline (TBS) (50 mM Tris-HCl (pH 8.0), 138 mM NaCl, 2.7 mM KCl) containing 0.05% Tween-20 for 3 times, 100 μl of antibody solution consisting of 50 mM Tris-HCl (pH 8.0), 138 mM NaCl, 2.7 mM KCl, 1% BSA, 60 ng/ml anti-phosphotyrosine monoclonal antibody, 4G10 (Upstate Biotechnology), which is labeled with europium by Amersham Pharmacia's kit in advance, was added and incubated at room temperature for 60 min. After washing, 100 μl of enhancement solution (Amersham pharmacia Biotech) was added and then time-resolved fluorescence was measured by multi-label counter ARVO (Wallac Oy, Finland) at 340 nm for excitation and 615 nm for emission with 400 msec of delay and 400 msec of window.

Structure (SMILES) | IC50
CCSc1nc(-c2ccc(OC(=O)N(C)C)c(OC)c2)cc2nccn12 [Example 3-12] | 2000 to 10000 nM
CCSc1nc(-c2ccc(OC)c(OC(=O)N(C)C)c2)cc2nccn12 [Example 4-10] | 500 to 2000 nM

Same assay, conditions: Table 17; IC50 classes; read-out: Activity grade

Structure (SMILES) | IC50
COc1ccc(-c2cc3nccn3c(Nc3ccccc3)n2)cc1NC(=O)CCC(=O)O [Example 2] | < 500 nM
COc1ccc(-c2cc3nccn3c(Nc3ccccc3)n2)cc1NC(C)=O [Example 3] | < 500 nM
COc1ccc(-c2cc3nccn3c(Nc3ccc(C(=O)NCC(O)CO)cc3)n2)cc1OC (stereo not drawn) [Example 5] | < 500 nM
COc1ccc(-c2cc3nccn3c(Nc3ccc(C(=O)NCCCO)cc3)n2)cc1OC [Example 7] | < 500 nM

Same assay, conditions: in vitro; compounds as yielded by solid phase synthesis, purity about 40 to 90%

Structure (SMILES) | Activity grade (IC50 class)
CCSc1nc(-c2ccc(S(=O)(=O)N3CCOCC3)c(OC)c2)cc2nccn12 [Example 2-6] | C-D
CCSc1nc(-c2ccc(S(N)(=O)=O)c(OC)c2)cc2nccn12 [Example 2-7] | C-D
CCSc1nc(-c2ccc(S(=O)(=O)NCCN(C)C)c(OC)c2)cc2nccn12 [Example 2-8] | C-D
CCSc1nc(-c2ccc(S(=O)(=O)N3CCN(C)CC3)c(OC)c2)cc2nccn12 [Example 2-9] | C-D
CCSc1nc(-c2ccc(S(=O)(=O)N3CCC(C(=O)O)CC3)c(OC)c2)cc2nccn12 [Example 2-10] | C-D
CCOC(=O)CCNS(=O)(=O)c1ccc(-c2cc3nccn3c(SCC)n2)cc1OC [Example 2-11] | C-D
CCSc1nc(-c2ccc(F)c(F)c2)cc2nccn12 [Example 8-7] | C-D

Same assay, conditions: in vitro; compounds as yielded by solid phase synthesis, purity about 40 to 90%; read-out: Activity grade (IC50 class)

Structure (SMILES) | IC50
CCSc1nc(-c2ccc(OC)c(OC)c2)cc2nc(C(=O)OC)cn12 [Example 1-1] | 500 to 2000 nM
CCSc1nc(-c2ccc(OC)nc2)cc2nccn12 [Example 1-2] | 2000 to 10000 nM
CCSc1nc(-c2ccc3c(c2)OCO3)cc2nccn12 [Example 1-3] | 500 to 2000 nM
CCSc1nc(-c2ccc(OC)cc2)cc2nccn12 [Example 1-5] | 500 to 2000 nM
CCSc1nc(-c2ccc3cc(OC)ccc3c2)cc2nccn12 [Example 1-6] | 2000 to 10000 nM
CCSc1nc(-c2ccc(OC)c(OC)c2)cc2nc(C)cn12 [Example 1-8] | < 500 nM
CCSc1nc(-c2ccc(SC)cc2)cc2nccn12 [Example 1-12] | 500 to 2000 nM
CCSc1nc(-c2ccc3c(c2)OCCO3)cc2nccn12 [Example 1-13] | 500 to 2000 nM
CCSc1nc(-c2ccc(C)c(S(=O)(=O)N3CCN(CCO)CC3)c2)cc2nccn12 [Example 2-1] | 500 to 2000 nM
CCSc1nc(-c2ccc(OC)c(S(=O)(=O)NCCO)c2)cc2nccn12 [Example 2-2] | < 500 nM
CCSc1nc(-c2ccc(OC)c(S(=O)(=O)N3CCN(CCO)CC3)c2)cc2nccn12 [Example 2-3] | < 500 nM
CCSc1nc(-c2ccc(SC)c(S(=O)(=O)N3CCN(CCO)CC3)c2)cc2nccn12 [Example 2-4] | 500 to 2000 nM
CCSc1nc(-c2ccc(C)c(S(=O)(=O)NCCO)c2)cc2nccn12 [Example 2-5] | < 500 nM
CCOc1ccc(-c2cc3nccn3c(SCC)n2)cc1OC [Example 3-1] | < 500 nM
C=CCOc1ccc(-c2cc3nccn3c(SCC)n2)cc1OC [Example 3-2] | < 500 nM
CCSc1nc(-c2ccc(OCc3ccc(OC)cc3)c(OC)c2)cc2nccn12 [Example 3-3] | 500 to 2000 nM
CCSc1nc(-c2ccc(OCC3CCCCO3)c(OC)c2)cc2nccn12 (stereo not drawn) [Example 3-4] | < 500 nM
CCSc1nc(-c2ccc(OC(C)C)c(OC)c2)cc2nccn12 [Example 3-5] | < 500 nM
CCSc1nc(-c2ccc(OC3CCCCC3)c(OC)c2)cc2nccn12 [Example 3-6] | 500 to 2000 nM

Structure (SMILES) | IC50
CCSc1nc(-c2ccc(OC(C)=O)c(OC)c2)cc2nccn12 [Example 3-7] | < 500 nM
CCSc1nc(-c2ccc(OC(=O)C(C)C)c(OC)c2)cc2nccn12 [Example 3-8] | 500 to 2000 nM
CCNC(=O)Oc1ccc(-c2cc3nccn3c(SCC)n2)cc1OC [Example 3-9] | 500 to 2000 nM
CCSc1nc(-c2ccc(OS(C)(=O)=O)c(OC)c2)cc2nccn12 [Example 3-10] | 500 to 2000 nM
CCSc1nc(-c2ccc(OC(=O)OC)c(OC)c2)cc2nccn12 [Example 3-11] | < 500 nM
CCSc1nc(-c2ccc(OC)c(OCc3ccccc3)c2)cc2nccn12 [Example 4-1] | 500 to 2000 nM
CCSc1nc(-c2ccc(OC)c(O)c2)cc2nccn12 [Example 4-2] | < 500 nM
CCSc1nc(-c2ccc(OC)c(OC(C)C)c2)cc2nccn12 [Example 4-3] | < 500 nM
CCSc1nc(-c2ccc(OC)c(OC3CCCCC3)c2)cc2nccn12 [Example 4-4] | 500 to 2000 nM
CCSc1nc(-c2ccc(OC)c(OCC3CCCCO3)c2)cc2nccn12 (stereo not drawn) [Example 4-5] | 500 to 2000 nM
CCOCCOc1cc(-c2cc3nccn3c(SCC)n2)ccc1OC [Example 4-6] | < 500 nM
CCSc1nc(-c2ccc(OC)c(OC(C)=O)c2)cc2nccn12 [Example 4-7] | < 500 nM
CCNC(=O)Oc1cc(-c2cc3nccn3c(SCC)n2)ccc1OC [Example 4-8] | < 500 nM
CCSc1nc(-c2ccc(OC)c(OS(C)(=O)=O)c2)cc2nccn12 [Example 4-9] | 500 to 2000 nM
CCSc1nc(-c2ccc(OCCCN3CCOCC3)c(OC)c2)cc2nccn12 [Example 5-1] | < 500 nM
CCSc1nc(-c2ccc(OCCCN(C)CC)c(OC)c2)cc2nccn12 [Example 5-2] | < 500 nM
CCSc1nc(-c2ccc(OCCCN(C)CCO)c(OC)c2)cc2nccn12 [Example 5-3] | < 500 nM
CCSc1nc(-c2ccc(OC)c(OCCCN3CCN(C)CC3)c2)cc2nccn12 [Example 5-4] | 500 to 2000 nM
CCSc1nc(-c2ccc(OC)c(OCCCN3CC[C@H](N(C)C)C3)c2)cc2nccn12 [Example 5-5] | 500 to 2000 nM

Structure (SMILES) | IC50
CCSc1nc(-c2ccc(OC)c(OCCCN3CCCCC3)c2)cc2nccn12 [Example 5-6] | 500 to 2000 nM
CCSc1nc(-c2ccc(OCCCN3CCCCC3)c(OC)c2)cc2nccn12 [Example 5-7] | < 500 nM
CCSc1nc(-c2ccc(OCCCN3CCN(C)CC3)c(OC)c2)cc2nccn12 [Example 5-8] | < 500 nM
CCSc1nc(-c2ccc(OCCCN3CCSCC3)c(OC)c2)cc2nccn12 [Example 5-9] | < 500 nM
CCSc1nc(-c2ccc(OC)c(OCCCN3CCSCC3)c2)cc2nccn12 [Example 5-10] | 500 to 2000 nM
CCSc1nc(-c2ccc(OC)c(OCCCN3CCOCC3)c2)cc2nccn12 [Example 5-11] | 500 to 2000 nM
CCSc1nc(-c2ccc(OC)c(OCCN3CCOCC3)c2)cc2nccn12 [Example 5-12] | 500 to 2000 nM
CCSc1nc(-c2ccc(OCCCN3CCC(C(N)=O)CC3)c(OC)c2)cc2nccn12 [Example 5-13] | < 500 nM
CCSc1nc(-c2ccc(OCCN3CC(C)OC(C)C3)c(OC)c2)cc2nccn12 (stereo not drawn) [Example 5-14] | < 500 nM
CCOc1ccc(-c2cc3nccn3c(SCC)n2)cc1OCC [Example 6-1] | < 500 nM
CCOCCOc1ccc(-c2cc3nccn3c(SCC)n2)cc1OCCOCC [Example 6-2] | 500 to 2000 nM
CCSc1nc(-c2cccc(N)c2)cc2nccn12 [Example 8, 3-(5-Ethylsulfanyl-imidazo[1,2-c]pyrimidin-7-yl)-phenylamine] | < 500 nM
CCSc1nc(-c2cccc(OC)c2)cc2nccn12 [Example 8-1] | 500 to 2000 nM
CCSc1nc(-c2cccnc2)cc2nccn12 [Example 8-2] | 2000 to 10000 nM
CCSc1nc(-c2cccs2)cc2nccn12 [Example 8-3] | 500 to 2000 nM
CCSc1nc(-c2ccsc2)cc2nccn12 [Example 8-5] | 500 to 2000 nM
CCSc1cc(-c2cccc([N+](=O)[O-])c2)cc2nccn12 [Example 8-6] | 500 to 2000 nM
CCSc1nc(-c2ccc([N+](=O)[O-])c(OC)c2)cc2nccn12 [Example 8-8] | 2000 to 10000 nM
